The subject of one assay is FgM tumors. The assay can be described thus: Tumor regression in the CAM assay, FgM. It is filed as in vivo, chick. Conditions: 100 μg intravenously 18 hours post-implantation; FIG. 17. As to the method: (§1) As described in Example 5, in addition to visually assessing the effect of anti-αvβ3 antagonists on growth factor or tumor induced angiogenesis, the effect of the antagonists was also assessed by measuring any changes to the tumor mass following exposure. For this analysis, the tumor-induced angiogenesis CAM assay system was prepared as described in Example 4C. At the end of the 7 day incubation period, the resulting tumors were resected from the CAMs and trimmed free of any residual CAM tissue, washed with 1 ml of phosphate buffer saline and wet weights were determined for each tumor.
(§2) To further assess the effects of αvβ3 antagonists on tumor growth and survival, fragments of human melanoma and fragments of carcinomas of the lung, pancreas, and larynx were placed on CAMS of 10-day old embryos as described in Example 3A.
Additional tumor regression assays were performed with the αvβ3-reactive peptide 85189 (SEQ ID NO: 15) against 69601 as a control. The assays were performed as described above with the exception that 100 μg of peptide was intravenously injected into the CAM at 18 hours post-implantation. After 48 hours more, the tumors were then resected and wet weights were obtained.

Assay [1] has as its system bFGF-induced angiogenesis. Kind of assay: CAM assay, growth factor-induced angiogenesis, intravenous application. Format: in vivo, chick. The following applies: for inhibition of bFGF-induced angiogenesis (branch points): intravenous 18 hours after bFGF induction, FIG. 12. As to the method: J. Pathol., 79:597 (1975). CAMs were prepared from chick embryos for subsequent induction of angiogenesis and inhibition thereof as described in Examples 4 and 5, respectively. Ten day old chick embryos were obtained from McIntyre Poultry (Lakeside, Calif.) and incubated at 37° C. with 60% humidity. A small hole was made through the shell at the end of the egg directly over the air sac with the use of a small crafts drill (Dremel, Division of Emerson Electric Co. Racine Wis.). A second hole was drilled on the broad side of the egg in a region devoid of embryonic blood vessels determined previously by candling the egg. […] A 1.0 centimeter (cm)×1.0 cm square window was cut through the shell over the dropped CAM with the use of a small model grinding wheel (Dremel). The small window allowed direct access to the underlying CAM.
Angiogenesis was induced by placing a 5 millimeter (mm)×5 mm Whatman filter disk (Whatman Filter paper No.1) saturated with Hanks Balanced Salt Solution (HBSS, GIBCO, Grand Island, N.Y.) or HBSS containing 150 nanograms/milliliter (ng/ml) recombinant basic fibroblast growth factor (bFGF) (Genzyme, Cambridge, Mass.) on the CAM of a 10-day chick embryo in a region devoid of blood vessels and the windows were latter sealed with tape. In other assays, 125 ng/ml bFGF was also effective at inducing blood vessel growth. For assays where inhibition of angiogenesis ws evaluated with intravenous injections of antagonists, angiogenesis was first induced with 1-2 μg/ml bFGF in fibroblast growth medium. Angiogenesis was monitored by photomicroscopy after 72 hours. CAMs were snap frozen, and 6 um cryostat sections were fixed with acetone and stained by immunofluorescence as described in Example 3C with 10 μg/ml of either anti-β1 monoclonal antibody CSAT or LM609.
For CAM preparations in which angiogenesis was induced with 1-2 μg/ml bFGF as previously described, synthetic peptides 69601 (control) and 66203 (SEQ ID NO: 5) were separately intravenously injected into CAM preparations 18 hours after bFGF induction of angiogenesis. The preparations were maintained for an additional 36-40 hours after which time the number of branch points were determined as previously described.
In other assays, peptide 85189 (SEQ ID NO: 15) was evaluated for inhibiting bFGF-induced angiogenesis in the CAM assay over a dosage range of 10 μg/embryo to 300 μg/embryo. The assay was performed as previously described.
In still further assays, peptide 85189 was compared to peptides 69601 and 66203 for anti-angiogenesis activity. The assay was performed as described above with the exception that 50 μg peptide were used.
The effectiveness of the different salt formulations of peptide 85189 was also evaluated in similar bFGF-induced CAM assays. The peptides were used at 100 μg/embryo. […] Untreated CAMs, labeled as “no cytokine” had approximately […] as many branch points as that seen with bFGF treatment, respectively 70 versus 190.
With the above-described protocol, the effect of MMP-2 fusion proteins, CTMMP-2(2-4), also referred to as CTMMP-2(445-467) and CTMMP-2(10-1), also referred to as CTMMP-2(274-637) was also evaluated. The assay was performed as previously described with the exception that 50 μg of fusion protein was administered to the bFGF-treated embryos. The effect of fusion protein treatment was assessed at 24 hours, 48 hours and 72 hours.
The 10 day old CAM preparation was used as previously described in Example 5A. Twenty-four hours after bFGF-induced angiogenesis was initiated, the organic peptidomimetics referred to as compounds 16 (81218), 17 (87292) and 18 (87293) were separately intravenously injected into the CAM preparation in a volume of 100 μl at a concentration of 1 mg/ml (100 μg/embryo) in 20% tetraglycol-PBS at pH 7.0. In parallel assays, compounds 7 (96112), 9 (99799), 10 (96229), 12 (112854) and 14 (96113) were similarly evaluated. […]

Assay [2] concerns human M21-L melanoma tumor. Kind of assay: Tumor regression in the CAM assay, M21-L. Format: in vivo, chick. As for the experimental part: as §1, §2
Human M21-L melanoma tumor fragments (50 mg) were implanted on the CAMs of 10 day old embryos as described in Example 3A and 3C. Twenty four hours later, embryos received a single intravenous injection of 300 μg/100 μl of either the cyclo-RADfV (69601) and or cyclo-RGDfV (66203). After a total of 72 hours, tumors were removed, examined morphologically, and photographed with a stereo microscope.
Additional tumor regression assays were performed with the αvβ3-reactive peptide 85189 (SEQ ID NO: 15) against 69601 as a control. […]

For assay [3], the target named is T1, immobilized αvβ3 receptor (Homo sapiens, UniProt P05106+P06756).
T1 construct: selected purified integrins were separately immobilized in Titertek microtiter wells
Kind of assay: Ligand receptor binding assay with ELISA detection. As to the method: In addition, the ability of peptides to inhibit the binding of either MMP-2 or VN to immobilized αvβ3 was assessed with peptides 69601 (SEQ ID NO: 6) and 66203 (SEQ ID NO: 5).

[ ]: non-standard residue; d: D form.

T1 sequence (P06756 31-889 limits assumed): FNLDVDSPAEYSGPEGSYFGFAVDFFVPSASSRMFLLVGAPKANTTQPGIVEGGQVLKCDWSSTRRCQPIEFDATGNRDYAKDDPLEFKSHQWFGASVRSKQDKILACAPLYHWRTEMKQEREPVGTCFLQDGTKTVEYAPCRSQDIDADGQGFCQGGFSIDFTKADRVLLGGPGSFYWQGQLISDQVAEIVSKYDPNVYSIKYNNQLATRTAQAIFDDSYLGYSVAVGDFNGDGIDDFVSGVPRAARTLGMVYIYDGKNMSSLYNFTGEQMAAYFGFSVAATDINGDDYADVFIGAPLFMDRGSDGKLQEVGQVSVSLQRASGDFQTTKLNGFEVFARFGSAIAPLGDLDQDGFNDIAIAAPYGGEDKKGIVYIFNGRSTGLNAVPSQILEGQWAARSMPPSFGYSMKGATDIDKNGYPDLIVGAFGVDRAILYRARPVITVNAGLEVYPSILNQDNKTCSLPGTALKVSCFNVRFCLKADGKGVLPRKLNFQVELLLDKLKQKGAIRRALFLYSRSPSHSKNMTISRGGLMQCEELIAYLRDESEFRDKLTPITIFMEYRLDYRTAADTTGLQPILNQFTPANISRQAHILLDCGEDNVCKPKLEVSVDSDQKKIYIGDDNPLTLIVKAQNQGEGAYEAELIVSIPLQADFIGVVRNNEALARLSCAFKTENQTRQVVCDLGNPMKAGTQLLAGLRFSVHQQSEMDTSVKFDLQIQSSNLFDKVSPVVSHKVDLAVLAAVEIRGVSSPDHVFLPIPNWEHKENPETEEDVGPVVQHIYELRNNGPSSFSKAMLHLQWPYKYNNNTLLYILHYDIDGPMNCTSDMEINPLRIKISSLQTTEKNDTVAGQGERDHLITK
T1 sequence (P06756 891-1048 partner limits assumed): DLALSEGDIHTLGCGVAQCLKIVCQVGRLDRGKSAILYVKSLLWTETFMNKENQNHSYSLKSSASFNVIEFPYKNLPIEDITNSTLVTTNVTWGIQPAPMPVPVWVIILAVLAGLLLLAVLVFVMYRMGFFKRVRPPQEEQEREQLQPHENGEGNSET
T1 sequence (P05106 27-788): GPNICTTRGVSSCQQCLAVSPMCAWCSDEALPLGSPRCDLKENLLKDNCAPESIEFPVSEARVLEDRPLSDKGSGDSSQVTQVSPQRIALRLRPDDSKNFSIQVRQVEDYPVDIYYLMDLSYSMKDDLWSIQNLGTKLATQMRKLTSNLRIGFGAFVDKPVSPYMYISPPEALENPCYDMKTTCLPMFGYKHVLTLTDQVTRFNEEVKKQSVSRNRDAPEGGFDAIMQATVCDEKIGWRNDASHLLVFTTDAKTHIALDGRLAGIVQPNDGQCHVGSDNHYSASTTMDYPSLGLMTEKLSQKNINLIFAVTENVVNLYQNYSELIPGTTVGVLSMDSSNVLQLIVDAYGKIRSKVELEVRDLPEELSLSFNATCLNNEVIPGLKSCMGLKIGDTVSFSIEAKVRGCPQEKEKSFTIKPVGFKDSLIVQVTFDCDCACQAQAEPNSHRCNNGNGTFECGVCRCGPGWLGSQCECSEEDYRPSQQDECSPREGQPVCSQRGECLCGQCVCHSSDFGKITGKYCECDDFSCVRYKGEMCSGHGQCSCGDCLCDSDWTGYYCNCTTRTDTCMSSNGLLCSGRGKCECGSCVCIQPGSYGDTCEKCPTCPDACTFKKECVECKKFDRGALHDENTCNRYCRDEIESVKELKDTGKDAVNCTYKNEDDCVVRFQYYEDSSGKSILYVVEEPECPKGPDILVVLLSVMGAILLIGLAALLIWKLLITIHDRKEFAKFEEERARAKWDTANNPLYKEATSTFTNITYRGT

“cyclo (RADfV) (cyclo(RAD[dF]V); SMILES CC(C)[C@@H]1NC(=O)[C@@H](Cc2ccccc2)NC(=O)[C@H](CC(=O)O)NC(=O)[C@H](C)NC(=O)[C@H](CCCNC(=N)N)NC1=O) [Peptide 69601, reference compound]”: the “effect on tumor weight, FgM” value in the assay on FgM tumors was “lack of effect”. Besides, the “inhibition of bFGF-induced angiogenesis, salt formulations” value in assay [1] (100 μg/embryo) is given as “no effect on inhibiting angiogenesis”. In assay [1] (100 μg/embryo, bFGF alone 190, no cytokine 70), the “number of branch points” value stood at 230 branch points. Besides, the “inhibition of bFGF-induced angiogenesis (branch points)” value in assay [1] was “absence of inhibition”. In addition, the “effect on tumor weight, M21-L” value in assay [2] (100 μg intravenously 18 hours post-implantation, FIG. 16) is reported as “lack of effect”. Moreover, the “inhibition of binding of MMP-2 or VN to immobilized αvβ3” value in assay [3] was “failed to have an effect with either ligand”.

With cyclo (RGDfV) [Peptide 66203], the “inhibition of bFGF-mediated angiogenesis” value in assay [1] (50 μg peptide, FIG. 14) is “effective inhibitors of bFGF-mediated angiogenesis”. In addition, the “inhibiting angiogenesis, HCl versus TFA peptide” value in assay [1] (assays of Example 5) is reported as “slightly more effective”. Also, the “inhibition of bFGF-induced angiogenesis (branch points)” value in assay [1] is “completely inhibited”. Further, the “inhibition of vessel formation in tumor” value in assay [2] (single intravenous injection of 300 μg/100 μl, 72 hours) is “inhibited vessel formation”. In assay [3], the “inhibition of binding of MMP-2 or VN to immobilized αvβ3” value is listed as “effective at inhibiting the binding of either substrate”.
